For one series, the target named is T1, MMP-1 (Homo sapiens, UniProt P03956).
T1 sequence (P03956 100-469): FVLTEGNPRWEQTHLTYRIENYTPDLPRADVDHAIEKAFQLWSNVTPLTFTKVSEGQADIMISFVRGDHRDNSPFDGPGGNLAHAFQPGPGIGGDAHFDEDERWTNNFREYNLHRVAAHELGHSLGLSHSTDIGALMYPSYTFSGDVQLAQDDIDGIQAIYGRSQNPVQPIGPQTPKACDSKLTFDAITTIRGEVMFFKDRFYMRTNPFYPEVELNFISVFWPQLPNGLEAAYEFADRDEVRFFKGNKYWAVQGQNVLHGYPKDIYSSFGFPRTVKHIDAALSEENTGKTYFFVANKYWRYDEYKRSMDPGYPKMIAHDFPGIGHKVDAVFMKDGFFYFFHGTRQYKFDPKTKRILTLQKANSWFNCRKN
The series is described as follows: MMP-1 inhibition (thiopeptide or fluorescent peptide substrate). Format: biochemical. Particulars: read-out: MMP-1 IC50.

The test system of the next series is THP-1 cells. Put plainly: THP-1 soluble protein assay, soluble TNF-α (ELISA). Format: cell-based, human. Particulars: for inhibition at 3 µM: Homo sapiens. (In general: ELISA stands for enzyme-linked immunosorbent assay.)
In another series the target is MMP-13 (Homo sapiens, UniProt P45452). The series is described as follows: MMP-13 inhibition (thiopeptide or fluorescent peptide substrate). The series is classed as biochemical. Particulars: read-out: MMP-13 IC50.
The target in series [1] is TNF-α converting enzyme (TACE) (Homo sapiens, UniProt P78536). The series is described as follows: TACE inhibition (fluorescent peptidyl substrate). Format: biochemical. The note with it: read-out: TACE IC50.
Another series has as its target MMP-9 (Homo sapiens, UniProt P14780). The series is described as follows: MMP-9 inhibition (thiopeptide or fluorescent peptide substrate). Format: biochemical. The note with it: read-out: MMP-9 IC50.
The mark [2] stands for this setting: THP-1, 3 μM, THP-1 cells, read-out: THP % Inhibition @ 3 μM.

Counter-ions that a name gives are not always drawn. Like-named read-outs stand apart in the source and are kept apart here.

TNF-α converting enzyme (TACE), sequence (P78536 215-824, species assumed): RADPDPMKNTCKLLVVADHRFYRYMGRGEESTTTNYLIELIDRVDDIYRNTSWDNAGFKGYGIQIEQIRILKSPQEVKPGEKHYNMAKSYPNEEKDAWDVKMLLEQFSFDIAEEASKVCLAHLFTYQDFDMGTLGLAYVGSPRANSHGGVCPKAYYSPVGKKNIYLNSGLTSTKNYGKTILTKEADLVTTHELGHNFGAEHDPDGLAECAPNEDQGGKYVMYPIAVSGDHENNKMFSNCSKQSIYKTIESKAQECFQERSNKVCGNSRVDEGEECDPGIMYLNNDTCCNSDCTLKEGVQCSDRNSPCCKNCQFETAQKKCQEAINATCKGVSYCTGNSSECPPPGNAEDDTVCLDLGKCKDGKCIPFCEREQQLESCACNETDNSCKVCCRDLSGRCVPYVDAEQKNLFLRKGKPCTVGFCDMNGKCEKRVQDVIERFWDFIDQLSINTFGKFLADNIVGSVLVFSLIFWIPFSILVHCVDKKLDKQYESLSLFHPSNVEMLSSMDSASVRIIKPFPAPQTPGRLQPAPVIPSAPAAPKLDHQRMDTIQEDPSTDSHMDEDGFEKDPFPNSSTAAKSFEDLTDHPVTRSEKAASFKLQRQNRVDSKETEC
MMP-9, sequence (P14780 94-707): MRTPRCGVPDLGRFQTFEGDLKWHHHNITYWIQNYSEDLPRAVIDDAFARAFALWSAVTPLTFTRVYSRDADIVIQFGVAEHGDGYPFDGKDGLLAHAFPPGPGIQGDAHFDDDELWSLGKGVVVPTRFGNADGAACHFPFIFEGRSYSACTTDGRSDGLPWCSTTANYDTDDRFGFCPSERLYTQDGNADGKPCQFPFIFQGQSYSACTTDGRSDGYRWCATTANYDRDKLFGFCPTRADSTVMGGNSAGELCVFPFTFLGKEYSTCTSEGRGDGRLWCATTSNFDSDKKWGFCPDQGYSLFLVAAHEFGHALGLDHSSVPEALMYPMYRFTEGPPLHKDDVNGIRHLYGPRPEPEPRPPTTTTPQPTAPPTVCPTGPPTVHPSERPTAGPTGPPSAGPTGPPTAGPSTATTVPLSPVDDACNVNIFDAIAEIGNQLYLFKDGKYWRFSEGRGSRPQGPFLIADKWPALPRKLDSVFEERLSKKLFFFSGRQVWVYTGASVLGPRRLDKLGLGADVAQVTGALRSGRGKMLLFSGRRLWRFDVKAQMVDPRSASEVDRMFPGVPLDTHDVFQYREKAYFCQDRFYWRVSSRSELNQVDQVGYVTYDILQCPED
Procedure for MMP-13: The enzyme activity is measured by the rate of the color increase. The thiopeptide substrate is made up fresh as a 20 mM stock in 100% DMSO and the DTNB is dissolved in 100% DMSO as a 100 mM stock and stored in the dark at room temperature. Both the substrate and DTNB are diluted together to 1 mM with substrate buffer (50 mM HEPES pH 7.5, 5 mM CaCl2) before use. The stock of enzyme is diluted with buffer (50 mM HEPES, pH 7.5, 5 mM CaCl2, 0.02% Brij) to the desired final concentration.
Alternatively, a fluorescent peptide substrate is used. In this test procedure, the peptide substrate contains a fluorescent group and a quenching group. Upon cleavage of the substrate by an MMP, the fluorescence that is generated is quantitated on the fluorescence plate reader. The assay is run in HCBC assay buffer (50 mM HEPES, pH 7.0, 5 mM Ca^+2, 0.02% Brij, 0.5% Cysteine), with human recombinant MMP-1, MMP-9, or MMP-13. […] For the assay, substrate and enzymes are diluted in HCBC buffer to the desired concentrations. Compounds are added to the 96 well plate containing enzyme and the reaction is started by the addition of substrate.
For either the thiopeptide or fluorescent peptide test procedures, the slope of the line is calculated and represents the reaction rate. The linearity of the reaction rate is confirmed (r^2>0.85). The mean (x±sem) of the control rate is calculated and compared for statistical significance (p<0.05) with drug-treated rates using Dunnett's multiple comparison test.
Procedure for THP-1 cells: Each vial of cells are cultured for about two weeks prior to being used for an assay and then are used for only 4 to 6 weeks to screen compounds.
Cell exposure to DMSO was limited to 0.1% final concentration. […] Plates are placed into an incubator set at 5% CO2 and at 37° C. After 4 hours of incubation, 300 ml/well of tissue culture supernatant (TCS) is removed for use in an TNF-α ELISA.
Percent change in each soluble protein evaluated from the “vehicle positive control” was calculated for each compound concentration with the following formula:
% Change=pg/ml (compound)−pg/ml (veh pos control)/(veh pos control)−pg/ml (veh neg control)×100
For the soluble protein (TNF-α, p75/80, p55/60, IL-8) studies under stimulated conditions, the mean pg/ml of duplicate wells were determined and the results expressed as percent change from “vehicle positive control”.

For `CC#CCOc1ccc(S(=O)(=O)NC2(C(=O)NO)CCN(C(=O)OC(C)(C)C)CC2)cc1` [Example 287, tert-Butyl 4-({[4-(2-Butynyloxy)phenyl]sulfonyl}amino)-4-[(hydroxyamino)carbonyl]-1-piperidinecarboxylate], the IC50 on MMP-1 is over 10000 nM; at MMP-13 it was 530 nM; in series [1], 37 nM. Further, in the series on THP-1 cells (setting [2]), the inhibition at 3 µM amounted to 60%.

Regarding `CC#CCOc1ccc(S(=O)(=O)N[C@H](CSCCCO)C(=O)NO)cc1` [Example 172, (2S)-2-({[4-(2-Butynyloxy)phenyl]sulfonyl}amino)-N-hydroxy-3-[(3-hydroxypropyl)sulfanyl]-3-propanamide], the IC50 at MMP-1 was over 1000 nM; on MMP-13, 169 nM; in series [1], 11 nM. For the same molecule, in the series on THP-1 cells (setting [2]), the inhibition at 3 µM came out at 70%.

On to `CC1(C)SCCN(S(=O)(=O)c2ccc(OCC#CCO)cc2)[C@H]1C(=O)NO` [Example 260, (3S)-N-Hydroxy-4-({4-[(4-hydroxy-2-butynyl)oxy]phenyl}sulfonyl)-2,2-dimethyl-3-thiomorpholine Carboxamide], for which the IC50 is 33 nM at MMP-1 (Table 10), 8.1 nM at MMP-13 (Table 10) and 20 nM in series [1] (Table 10). Besides, the inhibition at 3 µM in the series with THP-1 cells (THP-1, 3 μM, Table 10, read-out: THP % Inhibition @ 3 μM) turned out to be 95%.

Consider `CC#CCOc1ccc(S(=O)(=O)N(C)C(C(=O)NO)C(C)(C)SCC)cc1` (centres unmarked) [Example 150, 2-[(4-but-2-ynyloxy-Benenesulfonyl)-methyl-amino]-N-hydroxy-3-methyl-3-ethylsulfanyl-butyramide], for which the IC50 was determined as 25 nM at MMP-1, 9.3 nM at MMP-13 and 51 nM in series [1]. Also, the “THP % Inhibition @ 3 μM” value in the series on THP-1 cells (THP-1 cells) stood at 86%.

As for “3-(Benzylthio)-2-[[[4-(2-butynyloxy)phenyl]sulfonyl]methylamino]-N-hydroxypropanamide [Example 156]”, the “THP % Inhibition @ 3 μM” value in the series with THP-1 cells (THP-1 cells) amounted to 75%. In addition, the figures for the IC50 (at MMP-13; in series [1]) were 4.5 nM and 4.8 nM, respectively.

With `CC#CCOc1ccc(S(=O)(=O)N[C@@H](C(=O)NO)C(C)(C)SCCCO)cc1` [Example 171, (2S)-2-({[4-(2-Butynyloxy)phenyl]sulfonyl}amino)-N-hydroxy-3-[(3-hydroxypropyl)sulfanyl]-3-methylbutanamide], the IC50 at MMP-1 was determined as 2140 nM; on MMP-13 it was 36 nM; in series [1] it was 25 nM. In addition, the inhibition at 3 µM in the series with THP-1 cells (setting [2]) was found to be 67%.

For `CC#CCOc1ccc(S(=O)(=O)NC2(C(=O)NO)CCNCC2)cc1` [Example 288, 4-({[4-(2-Butynyloxy)phenyl]sulfonyl}amino)-N-hydroxy-4-piperidinecarboxamide], the IC50 is over 10000 nM at MMP-1, over 10000 nM on MMP-13 and 50 nM in series [1]. The inhibition at 3 µM in the series with THP-1 cells (setting [2]) was found to be 25%.

On to `CC#CCOc1ccc(S(=O)(=O)N(CC(=O)NO)Cc2cccnc2)cc1` [Example 23, 2-[(4-but-2-ynyloxy-Benzenesulfonyl)-pyridin-3-ylmethyl-amino]-N-hydroxyacetamide Hydrochloride], for which the inhibition at 3 µM with THP-1 cells (THP-1, read-out: THP % Inhibition @ 3 μM) was 63%.

The molecule `CC#CCOc1ccc(S(=O)(=O)N(C)C(C(=O)NO)C(C)(C)SC)cc1` (centres unmarked) [Example 149, 2-[(4-but-2-ynyloxy-Benenesulfonyl)-methyl-amino]-N-hydroxy-3-methyl-3-methylsulfanyl-butyramide] had a melting point of 132 to 135 °C. Also, the IC50 on MMP-9 came out at 13 nM. Moreover, the IC50 at MMP-1 was found to be 17 nM. Besides, the IC50 at MMP-13 turned out to be 4.6 nM. Besides, in series [1], the IC50 was determined as 29 nM.

For the molecule `CC#CCOc1ccc(S(=O)(=O)NC(C(=O)NO)c2ccc(OCCN(C)C(=O)OC(C)(C)C)cc2)cc1` (centres unmarked) [Example 203, tert-Butyl 4-(2-{4-[1-({[4-(2-Butynyloxy)phenyl]sulfonyl}amino)-2-(hydroxyamino)-2-oxoethyl)phenoxy]ethyl)-(methyl)carbamate], the melting point is 90 to 92 °C. In addition, the IC50 on MMP-9 came to 859 nM. The IC50 at MMP-1 was over 10000 nM. Besides, the IC50 on MMP-13 is 126 nM. For the same molecule, in series [1], the IC50 worked out at 49 nM.

The term IC50 denotes the concentration that inhibits the measured activity by half. The inhibition is the percentage by which the read-out fell short of the control. One may read the melting point as the temperature of the solid-liquid transition.
